Measured values reported in publication PMC6155662, “Trypanocidal Activity of Quinoxaline 1,4 Di-N-oxide Derivatives as Trypanothione Reductase Inhibitors” (Molecules : A Journal of Synthetic Chemistry and Natural …, 2017).
Like-named read-outs stand apart in the source and are kept apart here.

Experiments:
[1] = target: T1, recombinant T. cruzi TR (Trypanosoma cruzi, UniProt P28593); assay: TR enzyme inhibition (NADPH consumption at 340 nm); type: biochemical; details: for inhibition at 20 µM: inhibitor 20 µM; for inhibition at 40 µM: inhibitor 40 µM; for inhibition at 60 µM: inhibitor 60 µM; for inhibition at 80 µM: inhibitor 80 µM, T-085 precipitates in the assay at 80 µM; for inhibition at 100 µM: inhibitor 100 µM; for inhibitory activity on TR: even when tested at 100 μM, 100 μM or 40 μM TS2
T1 construct: made in house
T1 sequence (P28593 whole entry): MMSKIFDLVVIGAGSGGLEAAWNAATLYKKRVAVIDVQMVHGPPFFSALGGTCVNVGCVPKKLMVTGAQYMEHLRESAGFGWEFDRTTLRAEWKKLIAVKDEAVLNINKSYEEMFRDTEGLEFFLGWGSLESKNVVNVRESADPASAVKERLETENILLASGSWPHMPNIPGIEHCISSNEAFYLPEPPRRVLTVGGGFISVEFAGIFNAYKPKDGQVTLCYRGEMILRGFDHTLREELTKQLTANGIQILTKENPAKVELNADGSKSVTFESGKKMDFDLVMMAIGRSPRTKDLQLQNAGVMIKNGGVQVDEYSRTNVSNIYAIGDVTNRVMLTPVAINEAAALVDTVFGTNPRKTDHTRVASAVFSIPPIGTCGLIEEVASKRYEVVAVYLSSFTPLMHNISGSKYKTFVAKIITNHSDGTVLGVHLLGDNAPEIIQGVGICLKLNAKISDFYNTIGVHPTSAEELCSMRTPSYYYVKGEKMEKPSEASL
Experimental: Trypanothione disulfide (TS2) and recombinant T. cruzi TR were prepared following published procedures. Recombinant human glutathione reductase (GR) was kindly provided by Dr. Heiner Schirmer, Heidelberg Germany. Stock solutions (5 mM) of the inhibitors were prepared in DMSO. The kinetic analyses were conducted using a Jasco V650 spectrophotometer. All enzymatic tests were performed in polystyrene optical cuvettes (10 × 4 × 45 mm). TR activity was measured at 25 °C in a total volume of 1 mL TR assay buffer (40 mM HEPES, 1 mM EDTA, pH 7.5 [47]) containing 100 μM NADPH and 5–10 mU enzyme in the absence and presence of the inhibitor. Each assay contained a total of 5% DMSO. The reaction was started by adding TS2 and NADPH consumption was followed at 340 nm.
Five compound concentrations were used ranging from 100–5 μM. All measurements were performed twice in three independent series. Enzyme activity was plotted versus increasing inhibitor concentrations. IC50 values were calculated using the four-parameter equation model 205 and the option “unlock” from the XLfit add-in (IDBS, Guildford, United Kingdom) for Excel (Microsoft Corporation, Redmond, WA, USA).
The type of inhibition and the inhibitor constants were derived from Lineweaver-Burk plot. The activity of TR was measured in the absence and presence of two to three constant concentrations of inhibitor varying the concentration of TS2 (20, 40, 60, 100 and 200 µM). The inhibitory constant Ki was calculated from the direct plot using nonlinear least-squares data fitting in Excel spreadsheet.

[2] = system: bloodstream trypomastigotes NINOA and INC-5 of T. cruzi; set-up: method as in PMID 24691716; details: 5 µg/mL (M2 = 14.73 µM, M8 = 17.98 µM, M6 = 14.91 µM); NINOA and INC-5 bloodstream trypomastigotes; cited from earlier work
[3] = system: T. cruzi INC-5 epimastigotes; assay: Viability (MTT) assay on T. cruzi epimastigotes; type: cell-based, Trypanosoma cruzi; details: Trypanosoma cruzi, 24 h, mean and SD of triplicate
Experimental: In this study, two strains of T. cruzi isolated in Mexico were used. […] Epimastigotes were cultured in vitro in liver infusion-tryptose (LIT) medium supplemented with 10% heat inactivated fetal bovine serum (FBS) (Gibco) and 100 U/mL penicillin-streptomycin (In vitro S.A.), and incubated at 27 °C. CD1 mice, aged 6–8 weeks, were infected with T. cruzi to obtain bloodstream trypomastigote samples.
Viability assays of T. cruzi epimastigotes using 3-(4,5-dimethylthiazol-2-yl)-2,5-diphenyltetrazolium bromide (MTT) were performed. Briefly, the parasites were harvested during the exponential growth phase for a period of five days. In a 96-well microplate 1x10^6 epimastigotes were deposited in brain-heart infusion (BHI) medium supplemented with 10% FBS and 100 U/mL antibiotic-antifungal mixture (Gibco). […] Each well reached a final volume of 100 µL. Each condition was assessed in triplicate. The microplate was incubated for 24 h at 27 °C in darkness. Afterwards, 10 μL of a 5 mg/mL MTT solution was added and the plate was incubated for 20 h at 27 °C. Then 200 μL of 10% dodecyl sulfate (SDS)/0.1% HCl solution was added to dissolve formazan salts; the plate was incubated an additional 4 h. Finally, the plate was read at 570 nm in a spectrophotometer (Multiskan EX Thermo Electron, Taipei, Taiwan). The amount of viable cells was proportional to the amount of formazan produced. […] Later the results were converted to micromolar units. […] As a […] control, parasites were incubated only in culture medium with a 1% DMSO concentration, corresponding to the highest sample dilution of DMSO [34, 35, 36].

[4] = Cytotoxicity assay (Alamar Blue) on macrophages; type: cell-based, murine; details: mouse, J774A.1 macrophages, mean and SD of triplicate
Experimental: The murine macrophage cell line J774.A1 was maintained in culture flasks with RPMI 1640 medium supplemented with 10% FBS, 1% MEM-NEAA medium (Gibco) and 100 U/mL antibiotic-antifungal mixture (Gibco). Cells were incubated at 37 °C with 5% CO2 and humidity. Trypsinized J774.A1 macrophages were washed and viability was assessed by the trypan blue dye (Sigma-Aldrich, Toluca, Edo de Mexico, Mexico) exclusion assay. In a 96-well microplate, 50,000 macrophages were seeded per well and a dose-response assay was performed. Compounds were evaluated using six-fold serial dilutions ranging from 100 µg/mL to 0.3 µg/mL of final concentration. Each compound was tested in triplicate. After 20 h incubation, Alamar Blue was added (10% v/v) and cells were incubated for an additional 4 h period. Results were obtained as previously described and CC50 was calculated. As a negative control of cytotoxicity, cells were incubated only in the presence of 0.1% DMSO [39, 40].

[5] = system: T. cruzi bloodstream trypomastigotes INC-5 strain; assay: microbe, parasite or virus in culture; type: cell-based; details: Trypanosoma cruzi; 50 μg/mL, 24 h at 4 °C, infected mouse blood; read-out: % Lysis at 50 μg/mL INC-5 Strain
Experimental: (§1) In this study, two strains of T. cruzi isolated in Mexico were used. T. cruzi NINOA strain (MHOM/MX/1994/NINOA) was obtained from a patient with acute Chagas disease and T. cruzi INC-5 (MHOM/MX/1994/INC5) was isolated from a patient in the chronic phase of the disease. Epimastigotes were cultured in vitro in liver infusion-tryptose (LIT) medium supplemented with 10% heat inactivated fetal bovine serum (FBS) (Gibco) and 100 U/mL penicillin-streptomycin (In vitro S.A.), and incubated at 27 °C. CD1 mice, aged 6–8 weeks, were infected with T. cruzi to obtain bloodstream trypomastigote samples. Animal experiments were performed according to Norma Oficial Mexicana (NOM-062-Z00-1999) published on 22 August, 2009.
(§2) CD1 female mice 6–8 weeks old were infected with T. cruzi bloodstream trypomastigotes of the INC-5 and NINOA strains. The course of infection continued for 4–6 weeks. At the peak of parasitemia blood was obtained by cardiac puncture using sodium heparin as an anticoagulant. The blood was adjusted to 1 × 10^6 bloodstream trypomastigotes/mL.
(§3) In each well of the 96-well plate, 195 μL of infected blood and 5 μL of quinoxaline 1,4-di-N-oxide derivatives or reference drug dilutions were seeded, with each well reaching a final volume of 200 µL. Each assay was performed in triplicate. Initially, all compounds were tested at 50 μg/mL. […] As a negative control of lysis, wells with untreated blood trypomastigotes were used, and as a positive control, wells with the reference drugs were used. The microplates were incubated at 4 °C for 24 h. Bloodstream trypomastigotes were quantified by the method of Brener-Pizzi, 5 μL of blood were placed on a slide and covered with a coverslip 13 × 13 mm. The mobile protozoa were counted in 15 fields at 40× magnification using an optical microscope. The percentage lysis was determined by comparing the remaining trypomastigotes against the negative control. LC50 was determined with the Probit statistical tool. The results were later converted to micromolar units.

[6] = system: T. cruzi bloodstream trypomastigotes NINOA strain; assay: microbe, parasite or virus in culture; type: cell-based; details: Trypanosoma cruzi; 50 μg/mL, 24 h at 4 °C, infected mouse blood; read-out: % Lysis at 50 μg/mL NINOA Strain
Experimental: as §1, §2, §3

[7] = target: TR; details: known TR inhibitor, quoted for comparison; no reference given; cited from earlier work
[8] = 40 µM TS2, read-out: % Inhibition of TR at 40 µM [TS2]
[9] = 100 µM TS2, read-out: % Inhibition of TR at 100 µM [TS2]

Structure (SMILES)	inhibition at 40 µM [1, 8]	inhibition at 40 µM [1, 9]	inhibition at 100 µM [1, 8]	inhibition at 100 µM [1, 9]	IC50 [3]	% lysis at 5 µg/mL [2]	CC50 at 24 h [4]	killing at 50 µg/mL [5]	killing at 50 µg/mL [6]	further results
COC(=O)c1ccc2c(c1)[n+]([O-])c(C(=O)c1ccccc1)c(C)[n+]2[O-] [Compound T-003]	9%	10%	23.8%	19.3%		about 50%				inhibition at 20 µM [1, 8]: 6.6%; inhibition at 20 µM [1, 9]: 6%; inhibition at 60 µM [1, 8]: 14.8%; inhibition at 60 µM [1, 9]: 12%; inhibition at 80 µM [1, 8]: 20.5%; inhibition at 80 µM [1, 9]: 18%
CCCOC(=O)c1ccc2c(c1)[n+]([O-])c(C(=O)Nc1ccccc1)c(C)[n+]2[O-] [Compound T-125, n-Propyl 2-phenylamide-3-methylquinoxaline-7-carboxylate 1,4-di-N-oxide]					> 130 µM		> 261 µM	0%	35.6 ± 3.6%	
CCCOC(=O)c1ccc2c(c1)[n+]([O-])c(C(N)=O)c(C)[n+]2[O-] [Compound T-130, n-Propyl 2-amide-3-methylquinoxaline-7-carboxylate 1,4-di-N-oxide]					238 ± 11.5 µM		> 326 µM	0.69 ± 1.2%	4.65 ± 3.4%	
CC1CS(=O)(=O)CCN1/N=C/c1ccc([N+](=O)[O-])o1 (stereo not shown) [Nfx, nifurtimox, reference compound]					8.74 ± 3.8 µM		201 ± 12.5 µM	62.6 ± 3.9%	67.3 ± 5.4%	
CCN(CC)CCCC(C)Nc1c2ccc(Cl)cc2nc2ccc(OC)cc12 (stereo not shown) [mepacrine]										Ki [7]: 19 µM

Second part, led by results:

inhibition at 40 µM [1, 8]	inhibition at 40 µM [1, 9]	inhibition at 100 µM [1, 8]	inhibition at 100 µM [1, 9]	IC50 [3]	Structure (SMILES)	% lysis at 5 µg/mL [2]	CC50 at 24 h [4]	killing at 50 µg/mL [5]	killing at 50 µg/mL [6]	further results
0%	0%	7.5%	0%		COC(=O)c1ccc2c(c1)[n+]([O-])c(C(=O)OC(C)(C)C)c(C)[n+]2[O-] [Compound T-021]	about 50%				inhibitory activity on TR [1]: no or negligible inhibitory activity
0%	0%	0%	0%		COC(=O)c1ccc2c(c1)[n+]([O-])c(C(N)=O)c(C)[n+]2[O-] [Compound T-044]	about 50%				inhibitory activity on TR [1]: no or negligible inhibitory activity
				> 163 µM	CCCOC(=O)c1ccc2c(c1)[n+]([O-])c(C(C)=O)c(C)[n+]2[O-] [Compound T-126, n-Propyl 2-acetyl-3-methylquinoxaline-7-carboxylate 1,4-di-N-oxide]		> 327 µM	0%	17.7 ± 3.1%	
